# Like-named read-outs stand apart in the source and are kept apart here.
# Key:
# [1] = Study of pharmacokinetics, intramuscular injection in male rats; type: in vivo; conditions: whole blood, im, rat; for AUC: read-out: AUC0=last
# Experimental: Study of Pharmacokinetics
# 3 Male rats for each group, the compound as shown in formula (I) was administered by intramuscular injection. Whole blood samples were collected at 0.25, 0.50, 1.0, 2.0, 4.0, 8.0, 12.0, 24.0 and 48.0 hour(s) after administration of the aqueous suspension group. Whole blood samples were collected at 0.25, 0.50, 2.0, 4.0, 8.0, 10.0, 24.0, 48.0, 72.0, 96.0, 120.0 and 144.0 hour(s) after administration of the oil suspension group. After precipitating the protein with acetonitrile/methanol, the supernatant was collected for sampling and the blood concentration of the compound was determined by LC-MS/MS. The non-compartment model linear logarithmic trapezoid method was used to calculate the pharmacokinetic parameters of the compounds as shown in formula (I) and formula (II) respectively by using WinNonlin™ Version 6.3 (Pharsight, Mountain View, Calif.) pharmacokinetic software.
# [2] = cited from earlier work
# [3] = releases formula (II) after hydrolysis in vivo; cited from earlier work
# [4] = in vivo, prepared as an aqueous solution; cited from earlier work
# [5] = intramuscular injection of oil suspension of formula (I), 51.4 μM/Kg
# [6] = intramuscular injection of oil suspension of formula (I), 51.4 μM/Kg, 44.50 mg/mL, 0.25% Tween 80, medium chain triglyceride
# [7] = intramuscular injection of aqueous suspension of formula (I), 17.5 μM/Kg
Structure (SMILES),"Tmax [1, 5] [h]","Cmax [1, 6] [nM]","AUC [1, 5] [µM·h]",solubility in oil solution ([2]; oil solution),solubility in water ([2]; water),stability in plasma [3],clearance rate [4],half-life [4],"AUC(0-inf) [1, 7] [µM·h]","Tmax [1, 7] [h]","half-life [1, 7] [h]","Cmax ([1]; intramuscular injection of aqueous suspension of formula (I), 17.5 μM/Kg, 25 μm/mL, 1% Tween 20, 7.5% PEG 1000, 0.75% citric acid monohydrate) [nM]","AUC [1, 7] [µM·h]","AUC(0-inf) [1, 5] [µM·h]","half-life [1, 5] [h]"
C[C@@]12CCCCC[C@@H](Cc3c(F)cc(OC(=O)CCCCCCCCC(=O)Oc4cc(F)c5c(c4)[C@@]4(C)CCCCC[C@@H](C5)[C@@H]4N)cc31)[C@@H]2N [formula (I)],0.25,5.05,0.11,hardly soluble or insoluble,slightly soluble,unstable,too fast,short,–,–,–,–,–,–,–
C[C@@]12CCCCC[C@@H](Cc3c(F)cc(O)cc31)[C@@H]2N [formula (II)],2,378,10.1,–,–,–,–,–,5.81,4,7.52,438,5.71,10.4,24.1
